Consider 14 compounds from ChEMBL document CHEMBL1129697, “Synthesis and anticonvulsant evaluation of a series of (R)- and (S)-N-Cbz--aminoglutarimide and succinimide” (Bioorg Med Chem Lett, 1996).

Activity calls are given as the source filed them. The rule behind the calls is not given here.

Series [1] in a line: Compound was tested for neurotoxic activity in male mice using rotarod test. The class given is ADME. The note with it: mouse, in vivo. (The rotarod test checks motor coordination on a turning rod.)
Series [2] is described as follows: Compound was tested for anticonvulsant activity in male mice by pentylenetetrazole (80 mg/kg, sc) induced seizure test.; Protective index = TD50/ED50. The class given is ADME, organism-based. The note with it: mouse, in vivo, read-out: PI.
Series [3] is filed under the species Mus musculus. The series is described as follows: Compound was tested for anticonvulsant activity in male mice using maximal electric shock seizure test. The class given is functional.
Series [4] has as its system Mus musculus. As to the kind of experiment: Compound was tested for anticonvulsant activity in male mice by pentylenetetrazole (80 mg/kg, sc) induced seizure test. The class given is functional.
Series [5] in a line: Compound was tested for anticonvulsant activity in male mice using maximal electric shock seizure test; Protective index = TD50/ED50. The class given is ADME. The note with it: mouse, read-out: PI.
Series [6] can be described thus: Compound was tested for anticonvulsant activity in male mice using maximal electric shock seizure test.; Protective index = TD50/ED50. To be noted: mouse, read-out: PI. The class given is ADME.
Series [7] deals with Mus musculus. The series is described as follows: Compound was tested for anticonvulsant activity in male mice by pentylenetetrazole (80 mg/kg, sc) induced seizure test.; No effect. The class given is functional, organism-based.
For series [8], the species on record is Mus musculus. The series is described as follows: Compound was tested for anticonvulsant activity in male mice using maximal electric shock seizure test; No effect. The class given is functional, organism-based.

A word on the TD50: it is the dose at which the toxic effect under study appears in half of the subjects. A lower TD50 goes with harm at a small dose. What is called ED50 is the midpoint of the dose-response relation. As for `CN1C(=O)OC(C)(C)C1=O` [TRIMETHADIONE], the TD50 in series [1] was determined as 1070 mg/kg. The selectivity ratio in series [2] came to 4.3; in series [5], 1.5. For the same compound, the ED50 is 704 mg/kg in series [3] and 250 mg/kg in series [4].
`CCCC(CCC)C(=O)O` [VALPROIC ACID]: the ED50 in series [3] came to 272 mg/kg; in series [4], 149 mg/kg.
With `O=C1CC[C@H](NC(=O)OCc2ccccc2)C(=O)N1`, the TD50 in series [1] stood at 130 mg/kg. The selectivity ratio was 3.1 in series [2] and 3 in series [5]. The ED50 in series [3] was 43.1 mg/kg; in series [4] it was 42.5 mg/kg.
In series [1], `CN1C(=O)C[C@@H](NC(=O)OCc2ccccc2)C1=O` registered a TD50 of 167 mg/kg. Besides, the selectivity ratio in series [2] was 2; in series [5], 3.2. Also, the ED50 in series [3] worked out at 52.5 mg/kg; in series [4] it was 82.5 mg/kg.
Take `O=C1C[C@H](NC(=O)OCc2ccccc2)C(=O)N1`: the TD50 in series [1] is 161 mg/kg. In addition, the selectivity ratio in series [2] came to 2.1; in series [5], 1.6. In addition, the results for the ED50 in series [3] and in series [4] were 103 mg/kg and 78.1 mg/kg, respectively.
`CN1C(=O)CC[C@@H](NC(=O)OCc2ccccc2)C1=O` displayed a TD50 in series [1] of 120 mg/kg. Further, the values for the selectivity ratio in series [2] and in series [6] were 4.9 and 2.5, respectively. In addition, the ED50 in series [3] was 47.5 mg/kg; in series [4], 24.4 mg/kg.
In the case of `CCC1(c2ccccc2)C(=O)NC(=O)NC1=O` [PHENOBARBITAL], the ED50 in series [3] amounted to 21.8 mg/kg; in series [4], 13.1 mg/kg.
Regarding `O=C1C[C@@H](NC(=O)OCc2ccccc2)C(=O)N1`, in series [1], the TD50 came out at 178 mg/kg. Further, the selectivity ratio in series [2] came out at 1.6; in series [5] it was 1.4. In addition, the results for the ED50 in series [3] and in series [4] were 125 mg/kg and 110 mg/kg, respectively.
Compound `CN1C(=O)CC(C)(c2ccccc2)C1=O` (stereo not drawn) [METHSUXIMIDE] showed a TD50 in series [1] of 130 mg/kg. The results for the selectivity ratio in series [2] and in series [5] were 3.7 and 3.1, respectively. Further, the results for the ED50 in series [3] and in series [4] were 42.6 mg/kg and 34.5 mg/kg, respectively.
Compound `CN1C(=O)CC[C@H](NC(=O)OCc2ccccc2)C1=O` showed a TD50 in series [1] of 62.5 mg/kg. Also, the selectivity ratio amounted to 5 in series [2] and 1.7 in series [5]. Moreover, the ED50 in series [3] was 36.1 mg/kg; in series [4], 12.5 mg/kg.
For `O=C1NC(=O)C(c2ccccc2)(c2ccccc2)N1`, the ED50 entry in series [7] was “inactive”.
In series [1], `CN1C(=O)C[C@H](NC(=O)OCc2ccccc2)C1=O` displayed a TD50 of 118 mg/kg. Moreover, the selectivity ratio in series [2] was 1; in series [5] it was 1.9. The median effective dose (ED50) in series [3] was 61.2 mg/kg; in series [4], 113 mg/kg.
As to `O=C1CC[C@@H](NC(=O)OCc2ccccc2)C(=O)N1`, the TD50 in series [1] was 122 mg/kg. In addition, the figures for the selectivity ratio in series [2] and in series [5] were 2.6 and 2.2, respectively. Further, the ED50 stood at 56.3 mg/kg in series [3] and 46.9 mg/kg in series [4].
For `CCC1(C)CC(=O)NC1=O` (stereo not drawn) [ETHOSUXIMIDE], the selectivity ratio in series [2] came out at 3.4. This compound displayed an ED50 in series [4] of 130 mg/kg. For the same compound, the ED50 result in series [8] was “inactive”.
